{
  "source": "ChEMBL document CHEMBL6134907",
  "about": "“Synthesis of 5,9- and 5,8-Diaminoalkoxy Substituted Benzophenanthridinone Analogues as Tyrosyl-DNA Phosphodiesterase 1 Inhibitors and Their Radiosensitizing Activity” (J Med Chem, 2025)",
  "key": {"[1]": {"assay": "Toxicity in BALB/c mouse xenografted with human HCT-116 cells assessed as change in spleen weight at 1 to 10 mg/kg, ip every day for 14 days radiated for every 2 days once", "format": "organism-based", "details": "in vivo, 336 h, dose 1-10 mg/kg, time 14 day"}, "[2]": {"system": "Tyrosyl-DNA phosphodiesterase 1/Deoxyribonucleic acid", "assay": "Stabilization of TDP1/DNA complex in human HCT-116 cells at 100 uM ionizing radiation with 4 GY by Cellular Thermal Shift Assay (CETSA)", "format": "cell-based"}, "HCT-116 [3]": {"system": "HCT-116", "assay": "Effect on Lig4 expression in wild type human HCT-116 cells assessed as change in protein level at 5 to 10 uM measured after 24 hrs by Western blot analysis", "format": "functional, cell-based", "details": "dose 5-10 µM"}, "HCT-116 [4]": {"system": "HCT-116", "assay": "Downregulation of cell cycle pathway in human HCT-116 cells at 5 uM measured after 24 hrs by KEGG analysis", "format": "functional, cell-based"}, "HCT-116 [5]": {"system": "HCT-116", "assay": "Induction of 4GY ionizing radiation (IR) induced ROS production in human HCT-116 cells assessed as mitochondrial dysfunction by measuring mitochondrial membrane potential loss at 10 uM measured after 24 hrs by JC-1 staining analysis", "format": "functional, cell-based"}, "HCT-116 [6]": {"system": "HCT-116", "assay": "Induction of apoptosis in human HCT-116 cells assessed as late apoptotic cells at 5 uM measured after 24 hrs by FITC Annexin V/PI apoptosis detection assay (reference value: 0%)", "format": "functional"}},
  "note": "Active and inactive are the calls of the source. The rule behind the calls is not given here.",
  "data": [
    {"smiles": "COc1cc2c(=O)n(CCN(C)C)c3c4cc5c(cc4ccc3c2cc1OCCN1CCOCC1)OCO5", "values": [
      {"measurement": "Activity", "setting": "[1]", "value": "Non-toxic"},
      {"measurement": "Activity", "setting": "[2]", "value": "Active; Coincubation With Ionizing Radiation Showed Greater Complex Formation"},
      {"measurement": "Activity", "setting": "HCT-116 [3]", "value": "inactive"},
      {"measurement": "Activity", "setting": "HCT-116 [4]", "value": "Active"},
      {"measurement": "Activity", "setting": "HCT-116 [5]", "value": "Active"},
      {"measurement": "Activity", "setting": "HCT-116 [6]", "value": 5.99, "unit": "%"}
    ]}
  ]
}
